Measurements from US12275684B2, “Methods for making and using endoxifen” (Atossa Therapeutics, Inc., priority 2017, dated 2025).
Read-outs that look alike come from different tables or passages of the source.

Assay: Placebo controlled, dose escalation pharmacokinetic study of oral (Z)-Endoxifen capsules (serum endoxifen; incl. accumulation ratios and dose linearity)
Assay type: in vivo, human
Settings: female, human, serum
Excerpt: An objective of the study was to assess the safety and tolerability of oral (Z)-Endoxifen when administered […] orally as a capsule to healthy female volunteers. A secondary objective was to assess the pharmacokinetics of multiple doses of oral (Z)-Endoxifen in the subjects.
Generally, healthy female volunteers aged ≥18 years and ≤65 years were enrolled. 24 participants were enrolled in 3 cohorts and will be administered study drug orally. Three dose levels of orally administered (Z)-Endoxifen were investigated in 3 cohorts. In each cohort participants were randomized to receive an oral (Z)-Endoxifen or placebo in a blinded fashion. Enteric-resistant capsules used in the study were designed as delayed release capsules to resist rupture for at least 30 minutes, but typically, for about 2 hours, under gastric conditions and then open fully in intestinal fluid (DRCaps; Capsugel, a Lonza Company, USA). Enteric-resistant (Swedish Orange size Zero (0); Capsugel, USA) DRCaps capsules manually filled with 1, 2 or 4 mg of (Z)-endoxifen neat in compliance with GMP requirements were used. Placebo capsules contained microcrystalline cellulose an inert common capsule and tablet excipient.
Each cohort enrolled 8 participants, with 6 participants receiving (Z)-Endoxifen 1 mg capsules orally at 1 mg (Cohort 1), 2 mg (Cohort 2) or 4 mg (Cohort 3) doses and 2 participants receiving matching placebo capsules. In Cohort 1 (Dose Level=1 mg) two participants (sentinels) were dosed 24 hours prior to the remaining participants. One sentinel was dosed with (Z)-Endoxifen and the other with placebo. The remaining six participants in Cohort 1 were dosed as no safety concerns were identified in the sentinel participants. The non-sentinel participants in Cohort 1 were admitted to the clinical research facility at least one day later than the sentinels. There were no sentinels in Cohorts 2 and 3.
Participant engagement in this study was for a period of 56 days. These included a 28 day screening period, and a 7 day post treatment period for Pharmacokinetic (PK) sampling. There were two confinement periods, one at the beginning and one at the end of the dosing periods. Participants were confined to the clinical facility on Days-1 through to Day 2 and Days 21 and 22. If participants were to experience any clinically significant adverse events during the study, they would have been required to remain in the clinical facility for further observation at the discretion of the Principal Investigator (PI).
Healthy female volunteers were screened within 28 days prior to commencement of dosing. Participants were admitted to the clinical facility on Day-1 for up to 3 days. The first dose of (Z)-Endoxifen or placebo capsules was administered on Day 1. Following completion of all safety assessments and sampling for PK analyses, participants were discharged from the clinical facility on Day 2. The first dose on Day 1 was followed by a 6-day treatment free period (Days 2-7). Each participant returned to the clinical facility for PK blood draws and safety assessments during the treatment free period on study Days 4 and 6. On Day 8 participants commenced daily administration of (Z)-Endoxifen capsules or placebo capsules for 14 consecutive days (Days 8-21). Participants were supplied with study drug capsules and asked to self administer daily. Participants visited the clinical facility on Days 11, 14 and 17, prior to dose administration, for PK blood draws and safety assessments. On the morning of Day 21 each participant returned to the clinical facility prior to dose administration and were confined to the facility until Day 22 to allow for the collection of PK blood draws and safety assessments. The Day 21 dose was the last administration of study drug. Participants were discharged from the clinical facility on Day 22 and returned for PK blood draws and safety assessments on study Days 24, 26, and 28. […]

Compound `CC/C(=C(\c1ccc(O)cc1)c1ccc(OCCNC)cc1)c1ccccc1` [(Z)-Endoxifen, (Z)-4-(1-(4-(2-(methylamino)ethoxy)phenyl)-2-phenylbut-1-enyl) phenol] has an AUC(0-inf) (oral, 2 mg, Day 1, 2 mg, N 6, read-out: AUC0-inf, Mean) of 1.11 µg·h/mL, an AUC(0-inf) (oral, 2 mg, Day 1, 2 mg, N 6, read-out: AUC0-inf, Median) of 1.1 µg·h/mL and an AUC(0-t) (oral, 2 mg, Day 1, 2 mg, N 6, read-out: AUC24hr, GeoMean) of 0.301 µg·h/mL. The AUC(0-t) (oral, 2 mg, Day 1, 2 mg, N 6, read-out: AUC24hr, Mean) was 0.305 µg·h/mL, the AUC(0-t) (oral, 2 mg, Day 1, 2 mg, N 6, read-out: AUC24hr, Median) was 0.303 µg·h/mL and the AUC(0-t) (oral, 2 mg, Day 1, 2 mg, N 6, read-out: AUCTlast, GeoMean) was 0.862 µg·h/mL. The AUC(0-t) (oral, 2 mg, Day 1, 2 mg, N 6, read-out: AUCTlast, Mean) was 0.889 µg·h/mL, the AUC(0-t) (oral, 2 mg, Day 1, 2 mg, N 6, read-out: AUCTlast, Median) was 0.955 µg·h/mL and the Cmax (oral, 2 mg, Day 1, 2 mg, N 6, read-out: Cmax, GeoMean) was 0.0173 µg/mL. For the same compound, the Cmax (oral, 2 mg, Day 1, 2 mg, N 6, read-out: Cmax, Mean) was 0.0177 µg/mL, the Cmax (oral, 2 mg, Day 1, 2 mg, N 6, read-out: Cmax, Median) was 0.0175 µg/mL and the Tmax (oral, 2 mg, Day 1, 2 mg, N 6, read-out: Tmax, GeoMean) was 4.19 h. The Tmax (oral, 2 mg, Day 1, 2 mg, N 6, read-out: Tmax, Mean) was 4.28 h, the Tmax (oral, 2 mg, Day 1, 2 mg, N 6, read-out: Tmax, Median) was 4.17 h and the Vd/F (oral, 2 mg, Day 1, 2 mg, N 6, read-out: Vz/F, GeoMean) was 127 L. The Vd/F (oral, 2 mg, Day 1, 2 mg, N 6, read-out: Vz/F, Mean) was 131 L, the Vd/F (oral, 2 mg, Day 1, 2 mg, N 6, read-out: Vz/F, Median) was 118 L and the half-life (oral, 1-4 mg, read-out: apparent terminal half life (t½) by dose level) was 42 to 53 h. The Tmax (oral, Days 1 and 21, 1-4 mg, read-out: Median Tmax by dose level) was 4 to 8 h, the AUC(0-inf) (oral, dosing range of 1 mg to 4 mg, read-out: AUC0-inf) was 0.4 to 6 µg·h/mL and the AUC(0-inf) (po, 1 mg, Dose: 1 mg oral, Day 1, read-out: AUC(0-inf), individual subjects) was 0.593 µg·h/mL. The AUC(0-t) (po, 1 mg/day, Day 1, 1 mg/day oral (n = 5), read-out: AUC24 hr, Arithmetic Mean) was 0.158 µg·h/mL, the Cmax (po, 1 mg/day, Day 1, 1 mg/day oral (n = 5), read-out: Cmax, Arithmetic Mean) was 0.0096 µg/mL and the Tmax (po, 1 mg/day, Day 1, 1 mg/day oral (n = 5), read-out: Median Tmax) was 6 h. It also gave a Tmax (po, 1 mg/day, Day 1, 1 mg/day oral (n = 5), read-out: Tmax (Range)) of 2 to 8.08 h, a half-life (po, 1 mg/day, Day 1, 1 mg/day oral (n = 5), read-out: t1/2, Arithmetic Mean (converted)) of 41.1 h and an AUC(0-t) (po, 1 mg/day, Day 21, 1 mg/day oral (n = 5), read-out: AUC24 hr, Arithmetic Mean) of 0.458 µg·h/mL. For the same compound, the Cmax (po, 1 mg/day, Day 21, 1 mg/day oral (n = 5), read-out: Cmax, Arithmetic Mean) was 0.0246 µg/mL, the Tmax (po, 1 mg/day, Day 21, 1 mg/day oral (n = 5), read-out: Median Tmax) was 8 h and the Tmax (po, 1 mg/day, Day 21, 1 mg/day oral (n = 5), read-out: Tmax (Range)) was 4 to 6.05 h. For the same compound, the half-life (po, 1 mg/day, Day 21, 1 mg/day oral (n = 5), read-out: t1/2, Arithmetic Mean (converted)) was 52.6 h, the AUC(0-t) (po, 2 mg, Day 21, dose 2 mg oral once daily, GeoMean, N 6, read-out: AUC24hr) was 0.897 µg·h/mL and the Cmax (po, 2 mg, Day 21, dose 2 mg oral once daily, GeoMean, N 6, read-out: Cmax) was 0.0488 µg/mL. The Tmax (po, 2 mg, Day 21, dose 2 mg oral once daily, GeoMean, N 6, read-out: Tmax) was 3.64 h, the half-life (po, 2 mg, Day 21, dose 2 mg oral once daily, GeoMean, N 6, read-out: apparent terminal half life (t½) (converted)) was 42.8 h and the Vd/F (po, 2 mg, Day 21, dose 2 mg oral once daily, GeoMean, N 6, read-out: volume of distribution (Vd/F)) was 138 L. It also gave an AUC(0-t) (po, 2 mg, Day 21, dose 2 mg oral once daily, Mean, N 6, read-out: AUC24hr) of 0.911 µg·h/mL, a Cmax (po, 2 mg, Day 21, dose 2 mg oral once daily, Mean, N 6, read-out: Cmax) of 0.05 µg/mL and a Tmax (po, 2 mg, Day 21, dose 2 mg oral once daily, Mean, N 6, read-out: Tmax) of 4.01 h. For the same compound, the half-life (po, 2 mg, Day 21, dose 2 mg oral once daily, Mean, N 6, read-out: apparent terminal half life (t½) (converted)) was 43.4 h, the Vd/F (po, 2 mg, Day 21, dose 2 mg oral once daily, Mean, N 6, read-out: volume of distribution (Vd/F)) was 139 L and the AUC(0-t) (po, 2 mg, Day 21, dose 2 mg oral once daily, Median, N 6, read-out: AUC24hr) was 0.91 µg·h/mL. For the same compound, the Cmax (po, 2 mg, Day 21, dose 2 mg oral once daily, Median, N 6, read-out: Cmax) was 0.051 µg/mL, the Tmax (po, 2 mg, Day 21, dose 2 mg oral once daily, Median, N 6, read-out: Tmax) was 4 h and the half-life (po, 2 mg, Day 21, dose 2 mg oral once daily, Median, N 6, read-out: apparent terminal half life (t½) (converted)) was 45.7 h. It also gave a Vd/F (po, 2 mg, Day 21, dose 2 mg oral once daily, Median, N 6, read-out: volume of distribution (Vd/F)) of 132 L, an AUC(0-inf) (po, 2 mg, Dose: 2 mg oral, Day 1, read-out: AUC(0-inf), individual subjects) of 1.01 µg·h/mL and an AUC(0-t) (po, 2 mg/day, Day 1, 2 mg/day oral (n = 6), read-out: AUC24 hr, Arithmetic Mean) of 0.305 µg·h/mL. It also gave a Cmax (po, 2 mg/day, Day 1, 2 mg/day oral (n = 6), read-out: Cmax, Arithmetic Mean) of 0.0177 µg/mL, a Tmax (po, 2 mg/day, Day 1, 2 mg/day oral (n = 6), read-out: Median Tmax) of 4.17 h and a Tmax (po, 2 mg/day, Day 1, 2 mg/day oral (n = 6), read-out: Tmax (Range)) of 3 to 6 h. For the same compound, the half-life (po, 2 mg/day, Day 1, 2 mg/day oral (n = 6), read-out: t1/2, Arithmetic Mean (converted)) was 49 h.
